The record followed here is patent US10995068B2, “Synthetic sphingolipid-like molecules, drugs, methods of their synthesis and methods of treatment” (The Regents of the University of California, priority 2015, dated 2021).

Data set [1] relates to luciferase-expressing SW620 xenografts. In words: Luciferase-expressing SW620 xenografts treated with SH-BC-893. Type of data set: in vivo, mice. The settings on record: for SW620 tumors by bioluminescence imaging, caliper measurements and tumor mass at sacrifice: luciferase-expressing SW620 xenografts in mice, SH-BC-893 20 mg/kg i.p. On the procedure:
In many embodiments, exemplary experimentation was carried out to determine whether azacyclic constrained sphingolipid-lipid molecules inhibited neoplastic growth in vivo. To carry out this experimentation, luciferase-expressing SW620 xenografts were generated in mice.
In vivo studies. Experiments conducted in mice were performed in accordance with the Institutional Animal Care and Use Committee of University of California, Irvine following a power analysis conducted in consultation with the Biostatistics Shared Resource of Chao Family Comprehensive Cancer Center at UCI. Xenografts were produced by injecting 5 million cells subcutaneously in the flank of 10-16 week-old male or female NSG mice. Prostate isografts were produced in the same manner but in male 6-8 wk old C57BL/6 mice. Once tumors reached 100 mm^3, SH-BC-893 was administered by intraperitoneal (i.p.) injection or oral gavage as indicated. Tumor volume was calculated using the formula, volume (mm^3)=length [mm]×(width [mm])^2×0.52; BLI was measured using an IVIS imaging system (Xenogen). To generate pDKO mice on the C57BL6 background, Pten^flox mice (stock No. 0045597) and p53^flox mice (stock No. 008462) were obtained from the Jackson Laboratory and PB-Cre4 mice (strain #01XF5) were obtained from the NCI-Frederick Mouse Repository. Age-matched cohorts of pDKO males were generated by in vitro fertilization executed with the assistance of the Transgenic Mouse Facility at UC Irvine. Treatment was begun at 6-7 wks of age. […] Tumor samples were processed and imaged by the Pathology Research Services Core Facility at UC Irvine. Blood chemistry was analyzed by IDEXX BioResearch and complete blood counts were performed using a Hemavet hematology system.

A further data set relates to PP2A. In words: PP2A phosphatase activity. The class given is biochemical, murine. The settings on record: PP2A immunoprecipitated from FL5.12 cell lysates, phosphopeptide dephosphorylation. An excerpt:
Furthermore, many embodiments of the invention are directed to azacyclic constrained sphingolipid-like molecules inducing internalization of nutrient transporters via a mechanism that activates PP2A. […] Thus, activation of PP2A is very peculiar to certain sphingolipid structures. Activation of PP2A by FTY720 and SH-BC-893 also stimulated vacuolation, and as the PP2A inhibitors calyculin A and SV40 small t antigen, each blocked this effect (FIG. 59C). Of note, YM201636-induced vacuolation was unaffected by PP2A inhibition (FIG. 60B). In addition, inhibiting PP2A restored PIKfyve to the proper location within vacuoles in cells treated with FTY720 or SH-BC-893 (FIG. 57D).
PP2A phosphatase activity. PP2A activity was measured using a PP2A immunoprecipitation phosphatase assay kit (EMD Millipore). Briefly, the catalytic subunit of PP2A was immunoprecipitated from FL5.12 cell lysates with 4 μg anti-PP2A, C subunit. After four washes, the activity of immunoprecipitated PP2A was assessed by dephosphorylation of the phosphopeptide according to the manufacturer's instructions in the presence or absence of C2-ceramide, dihydro-C2-ceramide, FTY720, SH-BC-893, or calyculinA.

Data set [2] deals with 4F2 cell-surface antigen heavy chain (4F2hc). Briefly: Surface 4F2hc nutrient transporter expression. The class given is cell-based, human. The settings on record: treatment at IC50 and at twice this dose, 6 h; efficacy similar to FTY720. The source says: The broad activity of the embodiments of the inventions described herein is consistent with a bioenergetic mechanism of action against cancer cells that includes nutrient transporter down-regulation, as described supra. Thus, to directly examine the constrained pyrrolidine sphingolipid-like molecules on nutrient transport, the surface-levels of the amino acid transporter associated protein 4F2 cell-surface antigen heavy chain (4F2hc) was examined following treatment with several analogues at their IC50 and at twice this dose.
Nutrient transporter expression: Surface 4F2hc expression is measured at 6 h using phycoerythrin (PE)-conjugated mouse anti-human 4F2hc antibody (BD Pharmingen, cat #556077); analysis is restricted to viable cells. PE conjugated Mouse IgG1, k (cat #555749, BD Pharmingen) is used as an isotype control. Cells are analyzed on a BD LSR II flow cytometer and with FlowJo software (Treestar).

Data set [3] deals with murine hematopoietic cell line FL5.12. In words: Viability of FL5.12 cells by vital dye exclusion. The class given is cell-based. The settings on record: Mus musculus; FL5.12 cells, 48 h, vital dye exclusion; n ≥3; read-out: IC50 (μM) [95% CI]. The gist of the method: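 Murine FL5.12 hematopoietic cells were grown in RPMI 1640 with 10% FCS, 10 mM Hepes, 500 pg/ml IL-3, 55 μM β-mercaptoethanol and 2 mM L-glutamine at 0.1-0.5 million/ml. Viability was scored by vital dye exclusion, and IC50 values came from curve fitting.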

On to `CCCCCCCCc1ccc([C@H]2CCN[C@@H]2CO)cc1.Cl` [Compound 5, (2S,3R)-2-(hydroxymethyl)-3-(4-octylphenyl)Pyrrolidinium chloride], for which, in data set [1] (SW620 xenograft mice), the “body weight of treated mice” value was “Mild weight loss”. Moreover, the “SW620 tumors by bioluminescence imaging, caliper measurements and tumor mass at sacrifice” value in data set [1] is given as “reduced to a similar degree”. Besides, in the data set with PP2A, the PP2A activation result is “activating PP2A”. Moreover, in data set [2], the 4F2hc surface levels entry is recorded as “reduced 4F2hc surface levels”. For the same compound, in data set [3], the half-inhibitory concentration (IC50) (commonly the midpoint of a concentration-inhibition curve) amounted to 1.9 µM.

In the case of `CCCCCCCCc1ccc([C@@H]2CCN[C@H]2CO)cc1.Cl` [Compound 6], the 4F2hc surface levels entry in data set [2] is listed as “reduced 4F2hc surface levels”.

As for `CCCCCCCCc1ccc(CCC(N)(CO)CO)cc1.Cl` [FTY720, 2-Amino-2-[2-(4-octylphenyl)ethyl]propane 1,3-diol hydrochloride, reference compound], the “SW620 tumors by bioluminescence imaging, caliper measurements and tumor mass at sacrifice” value in data set [1] is recorded as “reduced to a similar degree”. The PP2A activation entry in the data set with PP2A is “activating PP2A”. The IC50 in data set [3] turned out to be 2.4 µM.
